Data taken from US12414968B2, “Compositions comprising bacterially derived minicells and methods of using the same” (EnGeneIC Molecular Delivery Pty Ltd, priority 2018, dated 2025).
Like-named read-outs stand apart in the source and are kept apart here.

Legend:
[1] = test system: RAW264.7 cells co-cultured with treated 4T1 and CT26Ep12.1 cells; test: RAW264.7 / treated tumor cell co-culture; assay type: cell-based, mouse; details: then co-culture
Procedure: Macrophage and DC/Tumor Cell Co-cultures: CT26Ep12.1 and 4T1 cells were harvested with Versene (Gibco) and cells were collected in 1 mL Eppendorf tubes. Cells were resuspended in 1 mL DMEM (Sigma) supplemented with 10% FBS (Bovogen) containing: Ep-EDV (1000:1 and 5000:1—EDV:cells); Ep-EDV-682 (500:1 and 1000:1—EDV:cells); Ep-EDV-Dox (10,000:1—EDV:cell), 100 pmol PNU-159682, 5 μM Doxorubicin, or media alone. […] Cells were then washed thoroughly with PBS to remove any non-adherent EDV or excess drug. Treated tumor cells were cultured overnight with either RAW264.7 or BMDC at a 1:1 ratio of tumor cells:RAW264.7/BMDC/JAWS II. Supernatants were collected for ELISA analysis. RAW264.7/tumor cell co-cultures were collected using a cell scraper and samples were stained with DAPI (Sigma), anti-CD45 Brilliant Violet 510 (BioLegend), anti-CD86 APC-Cy7, and anti-CD206 AF488 and assessed by flow cytometry. JAWS II/tumor cell and BMDC/tumor cell co-cultures were collected with versene and stained with DAPI (Sigma), CD11b AF488 (Abcam), CD11c PE (Molecular Probes), anti-CD45 Brilliant Violet 510 or PECy5 (BioLegend), anti-CD86 APC-Cy7, MHC Class II PECy5 (Thermo Fisher), MHC Class II Brilliant Violet 421 (BioLegend), 7-AAD (BioLegend), and/or CD80 PE (Thermo Fisher) and assessed by flow cytometry. […] RNA concentration was determined on an Eppendorf biophotometer plus. […]

[2] = test system: human lung cancer cell line A549; test: MTS cell proliferation assay, A549; assay type: cell-based; details: 72 hrs
[3] = test system: human colorectal cancer cell lines Caco-2 and HCT116; test: MTS cell proliferation assay, Caco-2 and HCT116; assay type: cell-based; details: 72 hrs
[4] = test system: human breast cancer cell line MDA-MB-468; test: MTS cell proliferation assay, MDA-MB-468; assay type: cell-based; details: 72 hrs
[5] = test system: bone marrow derived dendritic cells (BMDC) with CT26Ep12.1 cells; test: BMDC / treated CT26Ep12.1 co-culture; assay type: cell-based, mouse
Procedure: (§1) The effect of tumor cell death in response to Ep-EDV, Ep-EDV-682, and 682 treatment on dendritic cell maturation was also examined (FIGS. 27E-27I). Bone marrow derived dendritic cells (BMDC) were co-incubated with treated tumor cells (4T1 and CT26Ep12.1) for 48 h, followed by assessment of the production of the type 1 interferons IFNα and IFNβ. Increases in type 1 interferon production by dendritic cells is well established as a mechanism of dendritic cell maturation and enhanced antigen presentation as well as being vital for their interaction with other immune cell subsets including NK cells and T-cells (Fitzgerald-Bocarsly and Feng, 2007; Simmons et al., 2012).
(§2) Bone Marrow Derived DCs (BMDC): Bone marrow was isolated from the femurs and tibias of Balb/c mice. […]
(§3) Macrophage and DC/Tumor Cell Co-cultures: CT26Ep12.1 and 4T1 cells were harvested with Versene (Gibco) and cells were collected in 1 mL Eppendorf tubes. […] RAW264.7/tumor cell co-cultures were collected using a cell scraper and samples were stained with DAPI (Sigma), anti-CD45 Brilliant Violet 510 (BioLegend), anti-CD86 APC-Cy7, and anti-CD206 AF488 and assessed by flow cytometry. […] RNA concentration was determined on an Eppendorf biophotometer plus. […] Data was exported to excel and the relative quantitation was calculated from the ΔΔCt.

MiaPaca-2 cells = test: MTS cell proliferation assay, MiaPaca-2; assay type: cell-based, human; details: 72 hrs
[6] = test system: drug-resistant cancer cells; details: Quintieri et al., 2005; cited from earlier work
[7] = test system: bone marrow derived dendritic cells (BMDC) with 4T1 cells; test: BMDC / treated 4T1 co-culture; assay type: cell-based, mouse
Procedure: as §1, §2, §3

RAW264.7 cells = RAW264.7 cells incubated directly with EDVs; assay type: cell-based, mouse; details: direct incubation
Excerpt: Results: M1 macrophage polarization and dendritic cell maturation in response to EDV Treatment: Due to the fact that the EDV is derived from Salmonella Typhimurium bacteria, the outer EDV membrane contains a substantial lipopolysaccharide (LPS) content (MacDiarmid et al., 2007b). The interaction of high doses of LPS with macrophages is well known to result in macrophage activation and M1 polarization. To determine if the EDV was capable of eliciting a similar phenotypic response, RAW264.7 cells were incubated with Ep-EDV-682 and Ep-EDV and examined for changes in macrophage phenotype and cytokine production. Expression of the co-stimulatory CD86 expression is known to be a phenotypic indicator of macrophage polarization as well as a hallmark of the antitumor M1 tumor associated macrophages (TAMs) (Dong et al., 2016).
Treatment of RAW264.7 cells with EDVs: RAW264.7 cells were seeded in 6-well plates at 3×10^5 cells per well and incubated overnight. […] Cells were harvested 6h and 24h post treatment using a cell scraper and samples were stained with DAPI (Sigma), anti-CD45 Brilliant Violet 510 (BioLegend), anti-CD86 APC-Cy7 (BioLegend), and anti-CD206 AF488 (R&D Systems) and assessed by flow cytometry.

[8] = test system: Glioblastoma cell line U87-MG; test: MTS cell proliferation assay, U87-MG; assay type: cell-based; details: 72 hrs
[9] = test system: patient derived pancreatic ductal adenocarcinoma cells (head and tail); test: Drug sensitivity of patient derived PDAC cells; assay type: cell-based, human
Procedure: PDAC cells obtained from resected tumor tissue from both the head and tail of the pancreas were examined for drug sensitivity.
The dosed was administered over 20 min via a 20 ml niki pump and premedications were given prior to dosing as before (van Zandwijk et al., 2017). Serum biochemistry, haematology and cytokine expression was evaluated pre and 3 hours post each dose. CA19-9 and C-reactive protein levels were monitored at least bi-weekly. Peripheral Blood mononuclear cells (PBMCs) were examined by flow cytometry prior to dosing and at the end of the cycle for changes in anti-tumour immune cell numbers. Tumour tissue was obtained from the original surgical resection and PDAC cells were cultured and tested for drug sensitivity and surface receptors expression.

[10] = test system: Adreno-cortical cancer cell lines ACC01 and ACC07; test: MTS cell proliferation assay, ACC01 and ACC07; details: 72 hrs, lines derived from Stage IV patients
Procedure: All cells were incubated for a further 72 hrs followed by the colorimetric MTS cell proliferation assay (Cory et al., Cancer Commun., 3(7): 207-12 (1991)) using the CellTiter 96 AQueous One Solution Cell Proliferation Assay (Promega Corp., Madison, Wis., USA), according to the manufacturer's instructions. The colorimetric measurements were read at 490 nm.

MiaPaca-2 GemR cells = test: MTS cell proliferation assay, MiaPaca-2 GemR; assay type: cell-based, human; details: 72 hrs
JAWSII cells = test: αGC-CD1d surface presentation on JAWSII cells (flow cytometry); assay type: cell-based, mouse; details: 8h to 48h post-treatment; vs minicells alone and untreated
Procedure: Treatment of JAWSII spheroids with EDVαGC: JAWSII cells were treated with 1000 ng/ml αGC (positive control); empty minicells and minicellsαGC compared to untreated cells and collected at 8h, 16h, 24h and 48h post-treatment (FIG. 46A-46D).
Initial treatment preparation: 6 hanging drop suspension samples were used for each treatment group per time point. 5×10^4 JAWSII cells and 5×10^8 minicells ([…]) were used for each treatment sample and cultured in JAWSII cell culture media in a total volume of 50 μl. Extra untreated samples were prepared for isotype controls. The appropriate amount of minicells were pelleted by centrifugation at 12,000 g for 7 min and the supernatant was carefully removed by pipetting. Appropriate amount of live JAWS cells (based on the cell count from the previous section) were added to the pelleted minicells. The minicells were then dissociated into single-minicells-cell suspensions by gentle pipetting. The final volume of each sample was then made up by the addition of sterile culture media. […]
Staining the treated JAWSII cells with anti-alpha GalCer:mCD1d complex monoclonal antibody: The entire content of each hanging drop well was carefully collected using a P200 pipette and transferred into an Eppendorf tube. […] The samples were then analyzed using a Gallios flow cytometer.

Row | Structure (SMILES) | CD86 expression on RAW264.7 cells [1] | production of TNF-α and IL-6 (Th1 cytokines) [1] | cytotoxicity [2] | inhibition of proliferation / resistance of the cell lines [3] | inhibition of proliferation / resistance of the cell line [4] | type 1 interferon mRNA production [5] | inhibition of proliferation / resistance of the cells (MiaPaca-2 cells) | IC50s for even drug-resistant cancer cells [6] | type 1 interferon mRNA production [7] | CD86 expression (RAW264.7 cells) | inhibition of proliferation / resistance of the cell line [8] | drug sensitivity [9] | IC50 ([9]; head and tail PDAC cells) | drug sensitivity ([9]; listed as 682) | cytotoxic effect / resistance of the cell lines [10] | inhibition of proliferation / resistance of the cells (MiaPaca-2 GemR cells) | anti-GalCer:mCD1d staining (αGC surface presentation) (JAWSII cells)
1 | COc1cccc2c1C(=O)c1c(O)c3c(c(O)c1C2=O)C[C@@](O)(C(=O)CO)C[C@@H]3OC1CC2C(OC3C(OC)OCCN23)C(C)O1 (stereo partly drawn) [PNU-159682, 3′-deamino-3″,4′-anhydro-[2″(S)-methoxy-3″(R)-oxy-4″-morpholinyl] doxorubicin] | unable to produce any significant change | no increase | greater cytotoxicity | inhibited proliferation | inhibited proliferation | unable to elicit increases | could inhibit proliferation | pM range | unable to elicit increases | did not induce the same response | could inhibit proliferation | sensitive | pM range | extreme sensitivity | potent cytotoxic effects | could inhibit proliferation | –
2 | CCCCCCCCCCCCCCCCCCCCCCCCCC(=O)N[C@@H](CO[C@H]1O[C@H](CO)[C@H](O)[C@H](O)[C@H]1O)[C@H](O)[C@H](O)CCCCCCCCCCCCCC [free α-GC, α-galactosylceramide] | – | – | – | – | – | – | – | – | – | – | – | – | – | – | – | – | clear shift
